Test results taken from paper PMC6608980, “The lectin-specific activity of Toxoplasma gondii microneme proteins 1 and 4 binds Toll-like receptor 2 and 4 N-glycans to regulate innate immune priming” (PLoS Pathogens, 2019).

How the values were obtained:
[1] = biological target: T1, rMIC1 (Toxoplasma gondii, UniProt A0A125YMF8); assay: microplate sugar-inhibition of binding to coated fetuin, antibody detection; details: 25 °C, 2 h; competes with fetuin glycans at the carbohydrate-recognition domain
T1 construct: gene MIC1
T1 sequence (A0A125YMF8 entry or part of it): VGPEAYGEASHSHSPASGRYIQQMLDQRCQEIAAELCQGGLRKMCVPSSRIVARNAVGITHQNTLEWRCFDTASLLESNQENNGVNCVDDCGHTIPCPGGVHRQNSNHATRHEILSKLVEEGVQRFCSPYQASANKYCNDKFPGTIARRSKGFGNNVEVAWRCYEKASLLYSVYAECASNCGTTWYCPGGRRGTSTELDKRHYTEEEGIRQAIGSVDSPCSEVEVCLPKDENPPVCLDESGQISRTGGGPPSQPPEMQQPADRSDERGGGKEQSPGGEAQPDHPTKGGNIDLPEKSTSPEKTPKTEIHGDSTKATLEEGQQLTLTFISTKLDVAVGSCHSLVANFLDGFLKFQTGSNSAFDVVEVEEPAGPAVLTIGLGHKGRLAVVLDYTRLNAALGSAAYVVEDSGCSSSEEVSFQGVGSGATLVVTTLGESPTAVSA

[2] = biological target: T2, rMIC4 (Toxoplasma gondii, UniProt Q9XZH7); assay: microplate sugar-inhibition of binding to coated asialofetuin, antibody detection; details: 25 °C, 2 h; competes with asialofetuin glycans at the carbohydrate-recognition domain
T2 construct: gene MIC4
T2 sequence (Q9XZH7 26-580): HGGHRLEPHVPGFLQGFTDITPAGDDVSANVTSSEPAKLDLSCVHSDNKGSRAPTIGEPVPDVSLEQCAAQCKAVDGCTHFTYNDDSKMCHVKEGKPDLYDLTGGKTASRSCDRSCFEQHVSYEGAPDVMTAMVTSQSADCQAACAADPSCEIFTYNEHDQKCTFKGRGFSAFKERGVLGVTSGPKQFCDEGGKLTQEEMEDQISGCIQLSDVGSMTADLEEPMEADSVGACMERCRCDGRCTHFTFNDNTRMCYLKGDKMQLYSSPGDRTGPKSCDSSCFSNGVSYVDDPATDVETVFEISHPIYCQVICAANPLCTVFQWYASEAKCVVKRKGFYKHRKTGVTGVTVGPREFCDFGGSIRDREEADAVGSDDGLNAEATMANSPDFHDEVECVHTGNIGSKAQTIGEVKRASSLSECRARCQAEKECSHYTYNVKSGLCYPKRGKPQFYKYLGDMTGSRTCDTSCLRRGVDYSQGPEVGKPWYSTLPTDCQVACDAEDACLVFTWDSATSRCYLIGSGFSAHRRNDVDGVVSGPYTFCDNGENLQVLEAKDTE

| SMILES | microplate sugar-inhibition of binding to coated fetuin, antibody detection [1] | microplate sugar-inhibition of binding to coated asialofetuin, antibody detectio [2] |
| --- | --- | --- |
| CC(=O)N[C@H]1[C@H]([C@H](O)[C@H](O)CO)O[C@@](O[C@H]2[C@@H](O)[C@@H](CO)O[C@@H](O[C@H]3[C@H](O)[C@@H](O)C(O)O[C@@H]3CO)[C@@H]2O)(C(=O)O)C[C@@H]1O (stereo partly drawn) [α(2–3)-sialyllactose] | Sialyllactose inhibited the binding of rMIC1 to fetuin |  |
| CC(=O)N[C@H]1C(O)O[C@H](CO)[C@@H](O)[C@@H]1O[C@@H]1O[C@H](CO)[C@H](O)[C@H](O)[C@H]1O (some centres unmarked) [lacto-N-biose] |  | lacto-N-biose inhibited the binding of rMIC4 to asialofetuin |
